# Results published in patent US8883796B2, “Biphenyl derivatives, pharmaceutical composition comprising the same, and preparation method thereof” (Korea Institute of Science and Technology, priority 2013, dated 2014).
# Biological target: T1, Human recombinant 5-HT7 receptor (Homo sapiens, UniProt P34969)
# T1 construct: expressed in transfected cells; host or cells: CHO cells (membrane preparation)
# Assay: Binding affinity for 5-HT7 serotonin receptor ([3H]LSD radioligand binding)
# Details: 1 nM [3H]LSD, human recombinant 5-HT7 receptor expressed in CHO cells; for Ki: 25° C., 90 minutes; for inhibition at 10 µM: 10 μM test compound
# Protocol: % inhibition at 10 μM and binding affinity (Ki) of the novel compound represented by the Chemical Formula 1 according to the present disclosure for the 5-HT7 serotonin receptor were measured as follows.
# Human recombinant 5-HT7 receptor expressed in CHO cells was used. A reaction mixture (final concentration 0.25 mL) prepared from 1 nM [^3H]LSD, 5-HT7 receptor membrane (15 μg/well), test compound of various concentrations and 50 mM Tris-HCl buffer (pH 7.4) containing 10 mM MgCl2 and 0.1 mM EDTA was incubated at 25° C. for 90 minutes. After the incubation, reaction was terminated by rapid filtration through Whatman GF/C glass fiber filter previously soaked in 0.3% polyethyleneimine using a Brandel harvester and washed with cold 50 mM Tris-HCl buffer. The filter was covered with MeltiLex, sealed in a sample bag and dried in an oven. Counting was carried out using MicroBeta (Wallac). Nonspecific binding was measured in the presence of 0.5 μM mianserin. The Ki value of the test compound was obtained from nonlinear regression analysis (GraphPad Prism Program, San Diego, USA) of isotherms obtained by repeating experiments 3 times in duplicate test tubes at 10-11 varied concentrations.
# The % inhibition at 10 μM and binding affinity (Ki) of the novel compound according to the present disclosure for the 5-HT7 serotonin receptor are given in Table 1.
# T1 sequence (P34969 whole entry): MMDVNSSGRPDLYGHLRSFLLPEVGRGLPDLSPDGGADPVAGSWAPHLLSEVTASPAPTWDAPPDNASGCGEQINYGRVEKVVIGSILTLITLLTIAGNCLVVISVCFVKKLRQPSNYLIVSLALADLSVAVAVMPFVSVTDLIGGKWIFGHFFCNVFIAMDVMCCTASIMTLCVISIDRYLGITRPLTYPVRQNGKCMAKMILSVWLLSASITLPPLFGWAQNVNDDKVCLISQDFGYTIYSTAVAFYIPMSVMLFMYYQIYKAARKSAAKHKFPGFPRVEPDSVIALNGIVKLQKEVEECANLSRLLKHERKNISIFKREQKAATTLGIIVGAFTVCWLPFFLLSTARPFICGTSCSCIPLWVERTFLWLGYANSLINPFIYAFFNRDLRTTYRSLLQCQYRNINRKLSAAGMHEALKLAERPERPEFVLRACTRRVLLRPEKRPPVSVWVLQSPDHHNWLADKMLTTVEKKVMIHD
Compound,Ki [nM],inhibition at 10 µM [%]
"c1ccc(-c2ccccc2CN2CCN(c3ccccc3)CC2)cc1 [Compound 1, 1-(biphenyl-2-ylmethyl)-4-phenylpiperazine]",537,59.7
"COc1ccccc1N1CCN(Cc2ccccc2-c2ccccc2)CC1 [Compound 8, 1-(biphenyl-2-ylmethyl)-4-(2-methoxyphenyl)piperazine]",432,95.1
"Cc1ccc(C)c(N2CCN(Cc3ccccc3-c3ccccc3)CC2)c1 [Compound 21, 1-(biphenyl-2-ylmethyl)-4-(2,5-dimethylphenyl)piperazine]",658,93.8
"Clc1ccccc1N1CCN(Cc2cccc(-c3ccccc3)c2)CC1 [Compound 38, 1-(biphenyl-3-ylmethyl)-4-(2-chlorophenyl)piperazine]",66,88.3
"Fc1cccc(N2CCN(Cc3cccc(-c4ccccc4)c3)CC2)c1 [Compound 36, 1-(biphenyl-3-ylmethyl)-4-(3-fluorophenyl)piperazine]",79,91.3
"Cc1cccc(N2CCN(Cc3cccc(-c4ccccc4)c3)CC2)c1 [Compound 47, 1-(biphenyl-3-ylmethyl)-4-(3-methylphenyl)piperazine]",15,95.4
"CCOc1ccccc1N1CCN(Cc2ccccc2-c2ccccc2)CC1 [Compound 9, 1-(biphenyl-2-ylmethyl)-4-(2-ethoxyphenyl)piperazine]",192,86.2
"Cc1cc(C)cc(N2CCN(Cc3ccccc3-c3ccccc3)CC2)c1 [Compound 22, 1-(biphenyl-2-ylmethyl)-4-(3,5-dimethylphenyl)piperazine]",367,84
"FC(F)(F)c1cccc(N2CCN(Cc3ccccc3-c3ccccc3)CC2)c1 [Compound 25, 1-(biphenyl-2-ylmethyl)-4-(3-(trifluoromethyl)phenyl)piperazine]",64,95.9
"c1ccc(-c2ccccc2CN2CCN(c3ccccc3-c3ccccc3)CC2)cc1 [Compound 24, 1-(biphenyl-2-ylmethyl)-4-(biphenyl-2-yl)piperazine]",256,93.8
"CC(C)c1ccccc1N1CCN(Cc2ccccc2-c2ccccc2)CC1 [Compound 23, 1-(biphenyl-2-ylmethyl)-4-(2-isopropylphenyl)piperazine]",274,87
